Our source for the IC50 values is ChEMBL document CHEMBL1155702, “New tirucallane-type triterpenes from Dysoxylum variabile” (J Nat Prod, 2001).

≈ marks a conversion by molar mass, not a printed value.

Usually IC50 stands for the concentration needed to halve the response being measured. A low value points to inhibition by little substance.

This assay relates to KB. In words: Cytotoxicity against human KB cells. Format: functional, cell-based.
For `C[C@H](C[C@@H](O)[C@@H]1OC1(C)C)[C@@H]1CC[C@]2(C)[C@]34O[C@@H]3C[C@H]3C(C)(C)C(=O)CC[C@]3(C)[C@H]4CC[C@@]12C` [DYVARIABILIN B], inhibition was half-maximal at 10 µg/mL (≈ 21.2 µM) (IC50).

`C[C@H](C[C@@H](O)[C@@H]1OC1(C)C)[C@@H]1CC[C@]2(C)[C@@]34O[C@H]3C[C@H]3C(C)(C)C(=O)CC[C@]3(C)[C@H]4CC[C@@]12C` [DYVARIABILIN C] returned an IC50 of 8.7 µg/mL (≈ 18.4 µM).

Compound `C[C@H](C[C@@H](O)[C@@H]1OC1(C)C)[C@@H]1CC[C@]2(C)C3=CC[C@H]4C(C)(C)C(=O)CC[C@]4(C)[C@H]3CC[C@@]12C` [NILOTICIN] displayed an IC50 of 8.4 µg/mL (≈ 18.4 µM).
